Publication PMC8459971, “Evaluation of the hepatotoxicity of the novel GPR40 (FFAR1) agonist CPL207280 in the rat and monkey” (PLoS ONE, 2021)
Where “and” joins values, the source holds several entries; their conditions need not be identical. Equal values may be shown once.

Assays:
[1] = molecular target: T1, MRP4 (Homo sapiens, UniProt O15439); test: Vesicular transport inhibition assay, MRP4; conditions: for Accumulation (counts per minute; CPM) with AMP / Accumulation (counts per minute; CPM) with ATP: MRP4;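 further: membrane vesicles with MRP4 incubated with compound and probe substrate plus 4 mM ATP, or AMP as passive-diffusion background, vesicular substrate uptake read by liquid scintillation counting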;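 on Accumulation (counts per minute; CPM) with AMP: ATP 4 mM vs AMP background separates transporter uptake from diffusion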;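 on Accumulation (counts per minute; CPM) with ATP: ATP 4 mM vs AMP background separates transporter uptake from diffusion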
T1 sequence (O15439 1-1325): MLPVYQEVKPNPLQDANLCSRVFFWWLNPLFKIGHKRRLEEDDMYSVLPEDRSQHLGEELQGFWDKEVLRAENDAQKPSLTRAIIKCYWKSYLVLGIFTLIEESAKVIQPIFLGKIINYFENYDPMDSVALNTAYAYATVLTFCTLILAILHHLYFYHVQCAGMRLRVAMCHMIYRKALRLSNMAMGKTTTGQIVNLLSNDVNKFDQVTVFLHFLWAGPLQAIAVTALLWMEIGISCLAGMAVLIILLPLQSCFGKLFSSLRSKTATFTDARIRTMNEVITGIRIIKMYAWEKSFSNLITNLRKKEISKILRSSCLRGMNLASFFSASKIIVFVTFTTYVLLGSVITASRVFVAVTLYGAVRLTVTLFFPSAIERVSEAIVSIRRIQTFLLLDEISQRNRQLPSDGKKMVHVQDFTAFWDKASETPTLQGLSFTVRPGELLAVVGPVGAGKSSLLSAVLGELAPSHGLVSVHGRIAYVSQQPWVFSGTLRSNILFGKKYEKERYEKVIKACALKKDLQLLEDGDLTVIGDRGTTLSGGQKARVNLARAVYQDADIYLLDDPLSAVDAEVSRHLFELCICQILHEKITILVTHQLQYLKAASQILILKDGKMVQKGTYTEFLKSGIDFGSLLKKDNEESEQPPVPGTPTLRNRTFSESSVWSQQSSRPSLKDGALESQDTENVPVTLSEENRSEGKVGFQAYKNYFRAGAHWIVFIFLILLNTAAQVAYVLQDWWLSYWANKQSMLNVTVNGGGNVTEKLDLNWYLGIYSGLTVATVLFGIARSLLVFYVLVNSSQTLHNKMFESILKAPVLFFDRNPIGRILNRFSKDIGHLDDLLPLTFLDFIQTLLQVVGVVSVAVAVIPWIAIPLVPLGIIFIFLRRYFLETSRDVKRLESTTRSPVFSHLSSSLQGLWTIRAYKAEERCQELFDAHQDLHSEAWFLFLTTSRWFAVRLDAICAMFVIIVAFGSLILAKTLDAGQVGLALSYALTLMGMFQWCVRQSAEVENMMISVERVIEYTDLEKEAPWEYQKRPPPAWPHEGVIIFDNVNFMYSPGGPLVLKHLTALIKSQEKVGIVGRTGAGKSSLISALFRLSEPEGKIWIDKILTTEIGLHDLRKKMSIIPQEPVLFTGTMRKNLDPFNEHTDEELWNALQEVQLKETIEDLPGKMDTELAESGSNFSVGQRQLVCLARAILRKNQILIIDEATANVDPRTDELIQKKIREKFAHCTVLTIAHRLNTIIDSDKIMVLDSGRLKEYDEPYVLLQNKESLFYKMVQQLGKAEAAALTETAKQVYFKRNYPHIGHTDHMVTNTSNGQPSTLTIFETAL
Description: In the vesicular transport inhibition assay (for BSEP, MRP) compounds were incubated with membrane vesicle preparations and the probe substrate. Incubations were carried out in the presence of 4 mM ATP or AMP to distinguish between transporter-mediated uptake and passive diffusion into the vesicles. For MRP2 and MRP3, reactions were carried out in the presence of 2 mM glutathione. Compounds were added to the reaction mixture in 0.75 μL of solvent (1% of the final incubation volume). […] Reactions were initiated by the addition of 25 μL of 12 mM MgATP (or 12 mM AMP in assay buffer as a background control) and preincubated separately. Reactions were quenched by the addition of 200 μL of ice-cold washing buffer and immediate filtration via glass fiber filters mounted on a 96-well plate (filter plate). The filters were washed (5 × 200 μL of ice-cold washing buffer), dried, and the amount of substrate inside the filtered vesicles was determined by liquid scintillation counting.

[2] = tested on: HepG2; test: Viability assay, HepG2 cells, MTT test, 48 h; type: cell-based, human; conditions: for viability, normalized to DMSO-treated controls: sheet Fig1 panel B (HepG2), replicates, in % (unit assumed)
Description: (§1) To study the viability of the liver cells, 5 × 10^3 HepG2 (ATCC®) or human primary cells (ThermoFisher Scientific, USA) were seeded in 100 μL of DMEM media (Gibco; Thermo Fisher Scientific, USA) supplemented with fetal bovine serum (FBS)- in a 96-well plate. […] The experiments were performed in triplicates.

[3] = Viability assay, HepG2 cells, MTT test, 48 h; type: cell-based, human; conditions: human, HepG2 cells, sheet Fig1 panel B (HepG2), 48 h, replicates, read-out: viability, normalized to DMSO-treated controls
Description: as §1

[4] = Pharmacokinetics in mice, serum and liver concentrations; conditions: for liver conc / serum conc: mouse, 3 mg/kg p.o., individual animals
Description: The mice were separated into four groups of 32 mice per group. […] At time point t = 0, animals received a single dose of the compounds orally. […] Four hours after drug administration, the animals received standard chow. […] After solubilization in extraction buffer, the solutions were shaken for 1 min and then centrifuged for 4 min (4000 x g).

For `Cc1cc(OCCCS(C)(=O)=O)cc(C)c1-c1cccc(COc2ccc3c(c2)OC[C@H]3CC(=O)O)c1` [TAK-875, fasiglifam, reference compound], the IC50 [1] was 6.9 µM, the “Accumulation (counts per minute; CPM) with AMP” value ([1]; conc 0.07 µM) was 1270 CPM and 1266 CPM and the “Accumulation (counts per minute; CPM) with ATP” value ([1]; conc 0.07 µM) was 5265 CPM and 5304 CPM. The “Accumulation (counts per minute; CPM) with AMP” value ([1]; conc 0.21 µM) was 1193 CPM and 1241 CPM, the “Accumulation (counts per minute; CPM) with ATP” value ([1]; conc 0.21 µM) was 5360 CPM and 5232 CPM and the “Accumulation (counts per minute; CPM) with AMP” value ([1]; conc 0.62 µM) was 1249 CPM and 1265 CPM. The “Accumulation (counts per minute; CPM) with ATP” value ([1]; conc 0.62 µM) was 5330 CPM and 5164 CPM, the “Accumulation (counts per minute; CPM) with AMP” value ([1]; conc 16.67 µM) was 1183 CPM and 1161 CPM and the “Accumulation (counts per minute; CPM) with ATP” value ([1]; conc 16.67 µM) was 1970 CPM and 2307 CPM. For the same molecule, the “Accumulation (counts per minute; CPM) with AMP” value ([1]; conc 50.00 µM) was 1007 CPM and 1016 CPM, the “Accumulation (counts per minute; CPM) with ATP” value ([1]; conc 50.00 µM) was 1338 CPM and 1487 CPM and the effect on growth ([2]; HepG2, 48 h, 100 μM) was “abolished the growth”. The viability ([2]; HepG2, 48 h, concentrations up to 10 μM) was “Neither compound exhibited altered viability”, the IC50 ([2]; hepatocytes (HepG2 and human primary cells), 48 h, read-out: IC50 in the viability study) was ~50 µM and the “viability, normalized to DMSO-treated controls” value (“viability, normalized” below) ([2]; 48 h, 0.78 uM) was 126.396. The “viability, normalized” value ([2]; 48 h, 3.125 uM) was 63.2509, the “viability, normalized” value ([2]; 48 h, 6.25 uM) was 66.4311 and the “viability, normalized” value ([2]; 48 h, 25 uM) was 47.9859 and 54.8143. The “viability, normalized” value ([2]; 48 h, 50 uM) was 48.6926 and 45.8734, the “viability, normalized” value ([2]; 48 h, 100 uM) was 25.4386 and 23.9576 and 12.1733 and the viability at 48 h, 25 µM ([3]; 25 uM) was 67.5%. For the same molecule, the viability at 48 h, 50 µM ([3]; 50 uM) was 61.2%, the “distribution between liver and serum” value ([4]; mice, single oral dose 3 mg/kg, 15 min to 24 h) was “tended to penetrate the liver more than serum” and the liver conc ([4]; 0.5 h, 3 mg/kg) was 12066 and 9386 and 11708 and 12618. The serum conc ([4]; 0.5 h, 3 mg/kg) was 993.3 and 360.8 and 908.6 and 651.9, the liver conc ([4]; 1 h, 3 mg/kg) was 10596 and 9326 and 7020 and 7420 and the serum conc ([4]; 1 h, 3 mg/kg) was 1072.6 and 672.7 and 566 and 819. The liver conc ([4]; 2 h, 3 mg/kg) was 6580 and 5322 and 5300 and 4227.4, the liver conc ([4]; 4 h, 3 mg/kg) was 3742.6 and 2509.2 and 2176.6 and 3530.4 and the liver conc ([4]; 7 h, 3 mg/kg) was 1827.82 and 413.84 and 1236.2 and 1172.8. For the same molecule, the serum conc ([4]; 7 h, 3 mg/kg) was 0 and 11.2 and 32.3 and 10, the liver conc ([4]; 12 h, 3 mg/kg) was 594.8 and 321.278 and 55.624 and 442.92 and the serum conc ([4]; 12 h, 3 mg/kg) was 12 and 0 (2×) and 18.6. The serum conc ([4]; 24 h) was 0 and the liver conc ([4]; 24 h, 3 mg/kg) was 449.28 and 67.18 and 37.77 and 209.86.
